According to the NIST ThermoML archive (doi:10.1016/j.jct.2013.08.002):

Test: relative permittivity at various frequencies (dimensionless)
Conditions: 101 kPa, Liquid, Frequency=0.01 MHz, Coaxial cylinder capacitor

NCCNCCO [N-(2-aminoethyl)ethanolamine]
Conditions | relative permittivity
293.2 K | 21.51
299.2 K | 19.87
304.2 K | 18.18
308.2 K | 17.09
314.2 K | 15.84
320.2 K | 14.64
323.2 K | 13.97
330.2 K | 12.89
333.2 K | 12.3
339.2 K | 11.37
343.2 K | 10.77
348.2 K | 10.19
